Assay results taken from patent US20250145589A1, “PYRIDINE DERIVATIVE AND USE THEREOF” (SICHUAN HUIYU PHARMACEUTICAL CO., LTD., priority 2021, published 2025).
Where two headings read alike, the source gives them in different places.

How the values were obtained:
[1] = tested on: MIA PaCa-2-AMGR drug-resistant cell line; assay: MIA PaCa-2-AMGR drug-resistant cell proliferation inhibitory activity test; type: cell-based; settings: for IC50: 72 h, MIA PaCa-2-AMGR drug-resistant cells, 3 days incubation, CellTiter-Glo
Description: Test Example 7: Generation of MIA PaCa-2-AMGR drug-resistant cell line
(§1) MIA PaCa-2 cells were seeded and cultured at 50 to 70% confluence in six-well plate with DMEM (10% FBS+2.5% horse serum) medium at 37° C. with 5% CO2. AMG510 was added for induction at three starting concentrations of 1 nM, 10 nM and 50 nM, and the medium containing the same concentration of AMG510 was replaced every 3 days. Cells were passaged once they reached confluence. After every two passages at a given concentration of drug, the concentration was increased in a 3-fold increment until final concentrations of 1 μM for AMG510 was achieved.
(§2) MIA PaCa-2-AMGR cells in logarithmic growth phase were collected and seeded into a clear-bottom 96-well plate at a density of 4×10^3 cells per well in 80 μL of medium, and then incubated overnight at 37° C. with 5% CO2. The compounds were serially diluted 5-fold in DMSO to obtain 8 concentrations, and then further diluted with DMEM (10% FBS+2.5% horse serum) cell culture medium to obtain the working solutions (5×), 20 μL of each working solution was added to the cell culture supernatant in each well, and the plate was further incubated for 3 days at 37° C. with 5% CO2. The plate was then equilibrated with CellTiter-Glo® reagent at room temperature (25° C.) for 10-30 minutes. After aspirating 50 μL of the medium, 50 μL of CellTiter-Glo® reagent was added. The cells were thoroughly mixed with the CellTiter-Glo® reagent using a microplate shaker for 2 minutes, and then incubated at room temperature for 10 minutes. The 96-well plate was placed in a multi-mode microplate reader to record the luminescence values (RLU).
(§3) The inhibitory rate was calculated using the following formula: […]
Data were analyzed using GraphPad Prism for IC50 values (Note: The negative control refers to the group without inhibitor) The data were presented m Table 9

[2] = tested on: NCI-H358-AMGR drug-resistant cell line; assay: NCI-H358-AMGR drug-resistant cell proliferation inhibitory activity test; type: cell-based; settings: for IC50: 72 h, NCI-H358-AMGR drug-resistant cells, 3 days incubation, CellTiter-Glo
Description: Test Example 6t Generation of NCI-H358-AMGR Drug-Resistant Cell Line
as §1, with “NCI-H358 cells” for “MIA PaCa-2 cells”, “with RPMI-640” for “with DMEM”, “(10% FBS)” for “(10% FBS+2.5% horse serum)”, “with 5%4” for “with 5%”, “After every,” for “After every”, “a 3-old” for “a 3-fold”
as §2, with “NCI-H358-AMGR cells” for “MIA PaCa-2-AMGR cells”, “with RPMI-640)” for “with DMEM”, “(10% FBS)” for “(10% FBS+2.5% horse serum)”, “of CellTiter-Glo®,” for “of CellTiter-Glo®”, “the CellTiter-Glo®,” for “the CellTiter-Glo®”, “The […]” for “The 96-well”
as §3
Data were analyzed using GraphPad Prism for IC50 values (Note: The negative control refers to the group without inhibitor).

[3] = tested on: NCI-H358 cells (KRAS G12C mutant); assay: NCI-H358 cell proliferation inhibition (CellTiter-Glo); type: cell-based; settings: Homo sapiens, NCI-H358, 72 h; H358 cells (G12C mutation), 3 days, Table 6; read-out: NCI-H358 (IC50)
[4] = tested on: MIA PaCa-2 cells (KRAS G12C mutant); assay: MIA PaCa-2 cell anti-proliferation (CellTiter-Glo); type: cell-based; settings: Homo sapiens
Description: The number of viable cells was determined using the CellTiter-Glo® assay to evaluate the anti-proliferation efficacy of compounds. […] The compounds were serially diluted 4-fold in DMSO to obtain 9 concentrations, and then further diluted with DMEM (10% FBS+2.5% horse serum+1% penicillin/streptomycin) cell culture medium to obtain the working solutions (2×), 15 μL of each working solution was added to the cell culture supernatant in each well, and the cells were further incubated for 3 days at 37° C. with 5% CO2. The plate was then equilibrated with CellTiter-Glo® reagent at room temperature (25° C.) for 30 minutes. After adding 25 μL of CellTiter-Glo®, reagent, the cells were thoroughly mixed with the CellTiter-Glo® reagent using a microplate shaker for 2 minutes, and then incubated at room temperature for at least 30 minutes. […] Data were analyzed using GraphPad Prism for IC50 values (Note: The negative control refers to the group without inhibitor).

PI3Kα = PI3Kα (Homo sapiens (Human), UniProt P42336); assay: Inhibition of PI3Kα efficacy assay (ADP-Glo kinase assay); type: biochemical; settings: read-out: PI3Kα inhibitory activity (IC50)
In short: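 ADP-Glo luminescent detection of ADP from PI3Kα acting on PI substrate with ATP, 60 min at RT; compounds in 8-point five-fold serial dilution from 2 mM DMSO stock. IC50 from four-parameter variable-slope fit.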

PI3Kδ = PI3Kδ (Homo sapiens (Human), UniProt O00329); assay: Inhibition of PI3Kδ efficacy assay (ADP-Glo kinase assay); type: biochemical; settings: read-out: PI3Kδ inhibitory activity (IC50)
In short: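 Luminescent ADP-Glo readout of PI3Kδ: after a 60 min RT reaction with PI/ATP substrate, ATP depletion (40 min) and ADP detection (40 min) steps followed. Compounds tested as eight five-fold serial dilutions; inhibition rates fitted to log(inhibitor) vs. response, variable slope, for IC50.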

[5] = 72 h, MIA Paca-2 cells, 3 days, Table 7, read-out: MIA PaCa-2 (IC50)
[6] = MIA PaCa-2, 72 h, read-out: MIA PaCa-2 (IC50, nM)

PI3Kδ, sequence (O00329 whole entry): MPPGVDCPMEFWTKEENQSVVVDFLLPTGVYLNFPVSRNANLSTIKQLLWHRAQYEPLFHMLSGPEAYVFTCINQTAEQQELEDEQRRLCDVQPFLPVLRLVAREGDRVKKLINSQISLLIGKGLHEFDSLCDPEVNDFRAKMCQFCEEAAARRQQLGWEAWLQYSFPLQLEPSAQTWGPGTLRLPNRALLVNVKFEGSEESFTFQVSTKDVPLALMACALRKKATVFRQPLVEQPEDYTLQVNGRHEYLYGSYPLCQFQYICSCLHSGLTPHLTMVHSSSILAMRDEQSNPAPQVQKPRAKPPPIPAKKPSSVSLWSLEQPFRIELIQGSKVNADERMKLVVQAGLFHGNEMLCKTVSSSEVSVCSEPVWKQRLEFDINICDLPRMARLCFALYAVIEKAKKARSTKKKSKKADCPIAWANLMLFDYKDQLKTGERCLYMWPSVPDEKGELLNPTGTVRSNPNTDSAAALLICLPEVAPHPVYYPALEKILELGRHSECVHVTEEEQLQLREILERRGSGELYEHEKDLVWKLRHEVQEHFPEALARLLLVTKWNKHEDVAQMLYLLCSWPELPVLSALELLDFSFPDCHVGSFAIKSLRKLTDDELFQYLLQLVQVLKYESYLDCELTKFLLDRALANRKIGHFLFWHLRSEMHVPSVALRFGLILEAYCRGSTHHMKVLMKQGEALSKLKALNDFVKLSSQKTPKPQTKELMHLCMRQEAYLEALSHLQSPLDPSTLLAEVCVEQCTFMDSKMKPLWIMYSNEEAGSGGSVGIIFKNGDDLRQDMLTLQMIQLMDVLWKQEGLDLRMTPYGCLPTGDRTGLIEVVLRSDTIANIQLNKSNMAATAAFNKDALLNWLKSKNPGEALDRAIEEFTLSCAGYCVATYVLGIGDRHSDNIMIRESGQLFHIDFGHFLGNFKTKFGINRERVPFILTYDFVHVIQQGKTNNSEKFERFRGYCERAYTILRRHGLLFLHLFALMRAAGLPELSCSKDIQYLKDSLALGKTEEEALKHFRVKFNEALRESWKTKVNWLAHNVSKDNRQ
PI3Kδ, sequence (P27986 whole entry partner): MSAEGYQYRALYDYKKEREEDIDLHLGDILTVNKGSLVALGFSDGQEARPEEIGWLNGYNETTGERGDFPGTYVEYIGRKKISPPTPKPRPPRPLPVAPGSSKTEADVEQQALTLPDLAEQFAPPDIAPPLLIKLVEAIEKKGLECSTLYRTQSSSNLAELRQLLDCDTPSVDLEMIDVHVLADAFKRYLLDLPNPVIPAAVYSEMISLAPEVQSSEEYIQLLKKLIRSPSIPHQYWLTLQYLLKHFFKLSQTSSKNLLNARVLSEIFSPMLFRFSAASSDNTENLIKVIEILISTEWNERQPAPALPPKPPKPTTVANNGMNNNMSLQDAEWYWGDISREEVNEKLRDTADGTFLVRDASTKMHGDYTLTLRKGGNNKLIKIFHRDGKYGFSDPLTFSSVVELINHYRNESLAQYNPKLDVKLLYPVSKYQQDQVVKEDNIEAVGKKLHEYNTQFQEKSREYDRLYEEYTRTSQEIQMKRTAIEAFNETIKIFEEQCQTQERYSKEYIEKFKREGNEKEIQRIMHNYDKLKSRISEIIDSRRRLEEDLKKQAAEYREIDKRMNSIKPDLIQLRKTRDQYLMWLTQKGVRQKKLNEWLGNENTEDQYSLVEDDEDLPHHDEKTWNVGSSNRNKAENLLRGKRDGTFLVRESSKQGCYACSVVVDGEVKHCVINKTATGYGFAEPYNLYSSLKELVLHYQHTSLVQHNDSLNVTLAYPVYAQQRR
PI3Kα, sequence (P42336 whole entry): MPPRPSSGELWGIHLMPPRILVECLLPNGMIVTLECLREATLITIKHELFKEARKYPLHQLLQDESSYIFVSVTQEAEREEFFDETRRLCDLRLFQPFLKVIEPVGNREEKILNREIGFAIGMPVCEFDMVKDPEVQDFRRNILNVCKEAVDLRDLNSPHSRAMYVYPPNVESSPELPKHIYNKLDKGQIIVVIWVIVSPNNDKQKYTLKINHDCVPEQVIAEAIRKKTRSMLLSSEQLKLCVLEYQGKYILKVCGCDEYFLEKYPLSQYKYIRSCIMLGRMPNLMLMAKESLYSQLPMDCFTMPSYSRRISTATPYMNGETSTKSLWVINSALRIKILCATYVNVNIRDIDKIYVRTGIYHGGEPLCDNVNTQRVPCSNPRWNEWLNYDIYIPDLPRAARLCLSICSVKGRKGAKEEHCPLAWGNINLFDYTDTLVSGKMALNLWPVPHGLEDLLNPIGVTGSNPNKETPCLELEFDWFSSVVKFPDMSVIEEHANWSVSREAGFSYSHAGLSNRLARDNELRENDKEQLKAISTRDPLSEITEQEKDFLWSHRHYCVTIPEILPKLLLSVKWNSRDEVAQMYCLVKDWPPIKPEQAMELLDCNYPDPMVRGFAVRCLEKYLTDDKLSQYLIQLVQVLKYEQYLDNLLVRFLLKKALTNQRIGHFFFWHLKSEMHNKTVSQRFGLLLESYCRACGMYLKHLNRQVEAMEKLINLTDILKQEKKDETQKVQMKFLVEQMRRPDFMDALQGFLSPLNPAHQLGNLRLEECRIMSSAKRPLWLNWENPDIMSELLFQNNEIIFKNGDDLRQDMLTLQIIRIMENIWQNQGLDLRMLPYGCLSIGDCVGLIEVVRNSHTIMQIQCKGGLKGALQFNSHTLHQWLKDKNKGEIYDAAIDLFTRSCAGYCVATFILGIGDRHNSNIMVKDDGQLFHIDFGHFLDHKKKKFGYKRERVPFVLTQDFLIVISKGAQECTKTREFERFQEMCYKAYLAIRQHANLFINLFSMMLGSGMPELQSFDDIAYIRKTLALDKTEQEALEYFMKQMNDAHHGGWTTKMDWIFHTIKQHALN
PI3Kα, sequence (P27986 whole entry partner): as the sequence (P27986 whole entry partner) above

Row | SMILES | IC50 [3] | IC50 [4, 5] | IC50 (PI3Kα; Table 4) | also measured
1 | C=CC(=O)N1CCN(c2nc(=O)n(-c3c(C)ccnc3C(C)C)c3nc(-c4c(O)cccc4F)c(F)cc23)[C@@H](C)C1 [AMG-510, reference compound] | – | – | – | inhibition at 10 µM ([1]; 10 μM, MIA PaCa-2-AMGR, read-out: inhibition rate at the maximum dose): < 50%; IC50 [1]: > 10000 nM; inhibition at 10 µM ([2]; 10 μM, NCI-H358-AMGR, read-out: inhibition rate at the maximum dose): ≤ 50%; IC50 [2]: > 10000 nM
2 | C=CC(=O)N1CCC(Nc2ncnc3ccc(-c4cnc(Cl)c(NS(=O)(=O)c5ccc(F)cc5F)c4)nc23)CC1 [Example 2, N-(5-(4-((1-acryloylpiperidin-4-yl)amino)pyrido[3,2-d]pyrimidin-6-yl)-2-chloropyridin-3-yl)-2,4-difluorobenzenesulfonamide] | 485 nM | 485 nM | – | IC50 (PI3Kα; Table 1): 7.3 nM; IC50 (PI3Kδ; Table 1): 41.8 nM
3 | C=CC(=O)N1CCN(c2ncnc3ccc(-c4cnc(OC)c(NS(C)(=O)=O)c4)cc23)CC1 [Example 4, N-(5-(4-(4-acryloylpiperazin-1-yl)quinazolin-6-yl)-2-methoxypyridin-3-yl)methanesulfonamide] | 494 nM | 494 nM | – | IC50 (PI3Kα; Table 1): 9.5 nM; IC50 (PI3Kδ; Table 1): 12 nM
4 | COc1ncc(-c2ccc3ncnc(N4CCC5(CN(C(=O)/C=C/C(C)=O)C5)C4)c3c2)cc1NS(=O)(=O)c1ccc(F)cc1F [Example 13, (E)-2,4-difluoro-N-(2-methoxy-5-(4-(2-(4-oxopent-2-enoyl)-2,6-diazaspiro[3.4]octan-4-yl)quinazolin-6-yl)pyridin-3-yl)benzenesulfonamide] | 73.3 nM | 144 nM | – | IC50 [1]: 433 nM
5 | C=C(F)C(=O)N1CCN(c2ncnc3ccc(-c4cnc(OC)c(NS(=O)(=O)c5ccc(F)cc5F)c4)cc23)CC1 [Example 59, 2,4-difluoro-N-(5-(4-(4-(2-fluoroacryloyl)piperazin-1-yl)quinazolin-6-yl)-2-methoxypyridin-3-yl)benzenesulfonamide] | 30.6 nM | – | – | IC50 (PI3Kα; Table 2): 3.3 nM; IC50 (PI3Kδ; Table 2): 13.1 nM; IC50 [1]: 141 nM
6 | C=C(C(=O)N1CCN(c2ncnc3ccc(-c4cnc(OC)c(NS(=O)(=O)c5ccc(F)cc5F)c4)cc23)CC1)C(C)O (stereo not drawn) [Example 167, 2,4-difluoro-N-(5-(4-(4-(3-hydroxy-2-methylenebutanoyl)piperazin-1-yl)quinazolin-6-yl)-2-methoxypyridin-3-yl)benzenesulfonamide] | 36.5 nM | – | 2.2 nM | IC50 [4, 6]: 112 nM; IC50 (PI3Kδ; Table 4): 11.8 nM; IC50 [2]: 73 nM
7 | COc1ncc(-c2cc(C(F)(F)F)c3ncnc(N4CCN(C(=O)/C=C/C(C)=O)CC4)c3c2)cc1NS(=O)(=O)c1ccc(F)cc1F [Example 243, (E)-2,4-difluoro-N-(2-methoxy-5-(4-(4-(4-oxopent-2-enoyl)piperazin-1-yl)-8-(trifluoromethyl)quinazolin-6-yl)pyridin-3-yl)benzenesulfonamide] | 720 nM | – | 838 nM | IC50 [4, 6]: 393 nM

Second part, led by results:

Row | IC50 [3] | IC50 [4, 5] | IC50 (PI3Kα; Table 4) | SMILES | also measured
8 | 35.8 nM | 90 nM | – | COc1ncc(-c2ccc3ncnc(N4CCN(C(=O)/C=C/C(C)=O)CC4)c3c2)cc1NS(=O)(=O)c1cccc2cccc(Cl)c12 [Example 96, (E)-8-chloro-N-(2-methoxy-5-(4-(4-(4-oxopent-2-enoyl)piperazin-1-yl)quinazolin-6-yl)pyridin-3-yl)naphthalene-1-sulfonamide] | IC50 (PI3Kα; Table 2): 1 nM; IC50 (PI3Kδ; Table 2): 171 nM
9 | 344 nM | 369 nM | 16.1 nM | COc1ncc(-c2ccc3ncnc(N4CCN(C(=O)/C=C/C(C)=O)CC4)c3c2)cc1S(=O)(=O)Nc1ccc(F)cc1F [Example 166, (E)-N-(2,4-difluorophenyl)-2-methoxy-5-(4-(4-(4-oxopent-2-enoyl)piperazin-1-yl)quinazolin-6-yl)pyridine-3-sulfonamide] | IC50 (PI3Kδ; Table 4): 22.3 nM
10 | 35.1 nM | 29.1 nM | 0.49 nM | COc1ncc(-c2ccc3ncnc(N4CCN(C(=O)/C=C/C(C)=O)CC4)c3n2)cc1NS(=O)(=O)c1sc(C)nc1C [Example 222, (E)-N-(2-methoxy-5-(4-(4-(4-oxopent-2-enoyl)piperazin-1-yl)pyrido[3,2-d]pyrimidin-6-yl)pyridin-3-yl)-2,4-dimethyl-thiazole-5-sulfonamide] | IC50 (PI3Kδ; Table 4): 11.7 nM
11 | 55 nM | 70.2 nM | 6.4 nM | COc1ncc(-c2ccc3ncnc(C4=CCN(C(=O)/C=C/C(C)=O)CC4)c3n2)cc1NS(=O)(=O)c1c(F)cccc1F [Example 239, (E)-2,6-difluoro-N-(2-methoxy-5-(4-(1-(4-oxopent-2-enoyl)-1,2,3,6-tetrahydropyridin-4-yl)pyrido[3,2-d]pyrimidin-6-yl)pyridin-3-yl)benzenesulfonamide] | –
12 | 48.7 nM | 55.2 nM | 5 nM | COc1ncc(-c2ccc3ncnc(C4=CCN(C(=O)/C=C/C(C)=O)CC4)c3n2)cc1NS(=O)(=O)c1ccc(F)cc1F [Example 240, (E)-2,4-difluoro-N-(2-methoxy-5-(4-(1-(4-oxopent-2-enoyl)-1,2,3,6-tetrahydropyridin-4-yl)pyrido[3,2-d]pyrimidin-6-yl)pyridin-3-yl)benzenesulfonamide] | –
13 | 497 nM | 827 nM | 14.9 nM | COc1ncc(-c2cc3c(N4CCN(C(=O)/C=C/C(C)=O)CC4)ncnc3cn2)cc1NS(=O)(=O)c1ccc(F)cc1F [Example 245, (E)-2,4-difluoro-N-(2-methoxy-5-(4-(4-(4-oxopent-2-enoyl)piperazin-1-yl)pyrido[3,4-d]pyrimidin-6-yl)pyridin-3-yl)benzenesulfonamide] | –
14 | 115 nM | 44.1 nM | 2.3 nM | COc1ncc(-c2ccc3ncnc(N4CCN(C(=O)/C=C\C(=O)C(F)(F)F)CC4)c3c2)cc1NS(=O)(=O)c1ccc(F)cc1F [Example 248, (Z)-2,4-difluoro-N-(2-methoxy-5-(4-(4-(5,5,5-trifluoro-4-oxopent-2-enoyl)piperazin-1-yl)quinazolin-6-yl)pyridin-3-yl)benzenesulfonamide] | –
